Data on 33 molecules can be found in patent US8785468B2, “Phenylalanine amide derivatives useful for treating insulin-related diseases and conditions” (Amgen Inc., priority 2009, dated 2014).

Where a name gives a salt, the structure may show the parent alone. A value given as a limit tells only on which side of the number the result lay.

This test deals with T1, human receptor found in pancreatic islet cells (Homo sapiens, UniProt Q7Z601).
T1 sequence (Q7Z601 1-462): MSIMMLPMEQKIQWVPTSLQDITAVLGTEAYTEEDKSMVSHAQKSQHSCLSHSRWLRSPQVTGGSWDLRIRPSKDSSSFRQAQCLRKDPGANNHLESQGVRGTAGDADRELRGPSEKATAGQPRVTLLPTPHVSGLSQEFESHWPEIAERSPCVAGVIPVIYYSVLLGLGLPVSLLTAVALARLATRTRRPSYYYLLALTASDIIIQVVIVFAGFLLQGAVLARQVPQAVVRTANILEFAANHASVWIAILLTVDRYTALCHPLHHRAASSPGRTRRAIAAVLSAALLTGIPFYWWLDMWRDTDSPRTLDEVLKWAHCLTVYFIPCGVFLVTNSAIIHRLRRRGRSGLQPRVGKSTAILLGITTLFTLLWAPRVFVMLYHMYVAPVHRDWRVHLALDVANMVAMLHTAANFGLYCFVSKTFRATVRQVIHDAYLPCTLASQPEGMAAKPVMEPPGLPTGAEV
Description: Activation of intracellular IP3 signaling in transfected cells (Activation Assay). It counts as cell-based. The note with it: calculated from IP3 concentration measurements in cells transfected with the human receptor. The protocol:
Table 12 provides exemplary compounds that were prepared and assessed, following protocols known to those of skilled in the art, for activation of intracellular inositol trisphosphate (IP3) signaling pathways that lead to elevation of intracellular calcium concentration. EC50 values provided in Table 12 were calculated from IP3 concentration measurements in cells transfected with a human receptor found in pancreatic islet cells, inter alia.
By EC50 is commonly meant the concentration needed to bring the measured effect to its halfway point. As for `CCn1nc(-c2ccnc(NC)c2)cc1NC(=O)[C@H](Cc1ccc(F)cc1)NCc1cscn1` [Example 31.1, (2S)—N-(1-Ethyl-3-(2-(methylamino)pyridin-4-yl)-1H-pyrazol-5-yl)-3-(4-fluorophenyl)-2-(thiazol-4-ylmethylamino)propanamide], the EC50 was below 50 nM.

For the molecule `Cn1ncnc1-c1cc(-c2ccncc2)cc2c1CCN2C(=O)[C@H](Cc1ccccc1)NCc1cscn1` [Example 61, (2S)-1-(4-(2-Methyl-2H-1,2,4-triazol-3-yl)-6-(pyridin-4-yl)indolin-1-yl)-3-phenyl-2-(thiazol-4-ylmethylamino)propan-1-one], the EC50 was 1000 to 10000 nM. In the case of `CN(C(=O)[C@H](Cc1ccccc1)NCc1cscn1)c1cccc(-c2ccncc2)c1` [Example 34.8, (S)—N-Methyl-3-phenyl-N-(3-(pyridin-4-yl)phenyl)-2-(thiazol-4-ylmethylamino)propanamide], the concentration for a half-maximal effect (EC50) is 1000 to 10000 nM. For `COC(=O)c1cc(-c2ccnc(C)c2)cc2c1CCN2C(=O)[C@H](Cc1ccccc1)NCc1ccccn1` [Example 72, Methyl 6-(2-methylpyridin-4-yl)-1-((S)-3-phenyl-2-(pyridin-2-ylmethylamino)propanoyl)indoline-4-carboxylate] the value was 50 to 100 nM; for `C[C@H](N[C@@H](Cc1ccccc1)C(=O)Nc1nnc(-c2ccncc2)s1)c1cscn1` [Example 1.4], 50 to 100 nM. Next, `COc1ncc(-c2ccnc(C)c2)cc1NC(=O)[C@H](Cc1ccccc1)NCc1ccccn1` [Example 41.3, (2S)—N-(2-Methoxy-5-(2-methylpyridin-4-yl)pyridin-3-yl)-3-phenyl-2-(pyridin-2-ylmethylamino)propanamide]: 100 to 1000 nM; `CNc1cc(-c2cc(NC(=O)[C@H](Cc3ccc(F)cc3)NCc3cscn3)n(C(C)C)n2)ccn1` [Example 43.2]: 50 to 100 nM. For `O=C(O)c1cc(NC(=O)[C@H](Cc2ccccc2)NCc2cc[nH]n2)cc(-c2ccncc2)c1` [Example 45.5, (S)-3-(2-((1H-Pyrazol-3-yl)methylamino)-3-phenylpropanamido)-5-(pyridin-4-yl)benzoic acid] the value was 100 to 1000 nM; for `Nc1nc(CN[C@@H](Cc2ccccc2)C(=O)Nc2nnc(-c3ccncc3)s2)cs1` [Example 1.3, (S)-2-((2-aminothiazol-4-yl)methylamino)-3-phenyl-N-(5-(pyridin-4-yl)-1,3,4-thiadiazol-2-yl)propanamide], 100 to 1000 nM; for `O=C(Nc1nnc(-c2ccncc2)s1)[C@H](Cc1ccccc1)NCc1cscn1` [Example 1.5, (S)-3-phenyl-N-(5-(pyridin-4-yl)-1,3,4-thiadiazol-2-yl)-2-(thiazol-4-ylmethylamino)propanamide], 50 to 100 nM. On to `Cc1cc(-c2cc(Cl)cc(NC(=O)[C@H](Cc3ccccc3)NCc3ccccn3)c2)ccn1` [Example 46, (2S)—N-(3-chloro-5-(2-methylpyridin-4-yl)phenyl)-3-phenyl-2-(pyridin-2-ylmethylamino)propanamide], for which the EC50 is 50 to 100 nM. Next, `CNC(=O)c1cc(-c2ccncc2)cc2c1CCN2C(=O)[C@H](Cc1ccccc1)NCc1cscn1` [Example 62, (S)—N-Methyl-1-(3-phenyl-2-(thiazol-4-ylmethylamino)propanoyl)-6-(pyridin-4-yl)indoline-4-carboxamide]: 100 to 1000 nM; `O=C(Nc1cccc(-c2ccncc2F)c1)[C@H](Cc1ccccc1)NCc1cscn1` [Example 34.21, (2S)—N-(3-(3-Fluoropyridin-4-yl)phenyl)-3-phenyl-2-(thiazol-4-ylmethylamino)propanamide TFA salt]: 1000 to 10000 nM; `Cc1cc(-c2cccc(NC(=O)[C@H](Cc3ccccc3)NCc3cscn3)c2)ccn1` [Example 39, (2S)—N-(3-(2-methylpyridin-4-yl)phenyl)-3-phenyl-2-(thiazol-4-ylmethylamino)propanamide]: 50 to 100 nM. Next, `O=C(Nc1cccc(-c2ccncc2)c1)[C@@H](Cc1ccccc1)NCc1nccs1` [Example 34.7, (R)-3-Phenyl-N-(3-(pyridin-4-yl)phenyl)-2-(thiazol-2-ylmethylamino)propanamide trifluoroacetate]: 1000 to 10000 nM; `COc1ncc(-c2ccn[nH]2)cc1NC(=O)[C@H](Cc1ccccc1)NC1(c2ccccn2)CC1` [Example 14.1, (2S)—N-(2-methoxy-5-(1H-pyrazol-5-yl)pyridin-3-yl)-3-phenyl-2-(1-(pyridin-2-yl)cyclopropylamino)propanamide]: 100 to 1000 nM. For `CCn1nc(-c2ccnc(C)c2)cc1NC(=O)[C@H](Cc1ccc(F)cc1)NCc1cscn1` [Example 28, (2S)—N-(1-ethyl-3-(2-methylpyridin-4-yl)-1H-pyrazol-5-yl)-3-(4-fluorophenyl)-2-(thiazol-4-ylmethylamino)propanamide dihydrochloride] the value was below 50 nM; for `O=C(Nc1cccc(-c2ccncc2)c1)[C@H](Cc1cccc(F)c1)NCC1CC1` [Example 34.12, (S)-2-(Cyclopropylmethylamino)-3-(3-fluorophenyl)-N-(3-(pyridin-4-yl)phenyl)propanamide], 100 to 1000 nM. As for `CNc1nccc(-c2cc(NC(=O)[C@H](Cc3ccc(F)cc3)NCc3cscn3)n(C)n2)n1` [Example 9, (2S)-3-(4-fluorophenyl)-N-(1-methyl-3-(2-(methylamino)pyrimidin-4-yl)-1H-pyrazol-5-yl)-2-(thiazol-4-ylmethylamino)propanamide], the EC50 is 100 to 1000 nM. As to `COc1ncc(-c2ccncc2)cc1NC(=O)[C@H](Cc1ccccc1)NCc1ccon1` [Example 35.4, (S)-2-(Isoxazol-3-ylmethylamino)-N-(2-methoxy-5-(pyridin-4-yl)pyridin-3-yl)-3-phenylpropanamide], the EC50 was 100 to 1000 nM. Regarding `O=C(Nc1cccc(-c2ccncc2)c1)[C@@H](Cc1ccccc1)NCc1cncs1` [Example 34.6, (R)-3-Phenyl-N-(3-(pyridin-4-yl)phenyl)-2-(thiazol-5-ylmethylamino)propanamide trifluoroacetate], the EC50 is 1000 to 10000 nM. Take `Cn1nc(-c2ccncc2)cc1NC(=O)[C@H](Cc1ccc(F)cc1)NCc1cscn1` [Example 17.5, (S)-3-(4-Fluorophenyl)-N-(1-methyl-3-(pyridin-4-yl)-1H-pyrazol-5-yl)-2-(thiazol-4-ylmethylamino)propanamide]: the EC50 was below 50 nM. For `O=C(O)c1cc(NC(=O)[C@H](Cc2ccccc2)NCc2nccs2)cc(-c2ccncc2)c1` [Example 45.3, (S)-3-(3-Phenyl-2-(thiazol-2-ylmethylamino)propanamido)-5-(pyridin-4-yl)benzoic acid] the value was 100 to 1000 nM; for `COc1ccc(NC(=O)[C@H](Cc2ccccc2)NCc2cscn2)cc1-c1ccncc1` [Example 37, (S)—N-(4-Methoxy-3-(pyridin-4-yl)phenyl)-3-phenyl-2-(thiazol-4-ylmethylamino)propanamide], 50 to 100 nM; for `CNc1cc(-c2cc(NC(=O)[C@H](Cc3ccc(F)cc3)NCc3c[nH]nn3)n(C)n2)ccn1` [Example 23.7, (2S)-2-((1H-1,2,3-triazol-4-yl)methylamino)-3-(4-fluorophenyl)-N-(1-methyl-3-(2-(methylamino)pyridin-4-yl)-1H-pyrazol-5-yl)propanamide], below 50 nM.

For `COc1ncc(-c2cn[nH]c2)cc1NC(=O)[C@H](Cc1ccccc1)NCc1ccccn1` [Example 15.2, (2S)—N-(2-methoxy-5-(1H-pyrazol-4-yl)pyridin-3-yl)-3-phenyl-2-(pyridin-2-ylmethylamino)propanamide], the EC50 is 100 to 1000 nM. Next, `O=C([C@H](Cc1ccccc1)NCc1ccccn1)N1CCc2ccc(-c3ccncc3)cc21` [Example 50, (S)-3-Phenyl-2-(pyridin-2-ylmethylamino)-1-(6-(pyridin-4-yl)indolin-1-yl)propan-1-one TFA Salt]: 100 to 1000 nM; `CNc1cc(-c2nnc(NC(=O)[C@H](Cc3ccccc3)NCc3cscn3)s2)ccn1` [Example 8.1]: below 50 nM.

Consider `O=C(Nc1cccc(-c2ccncc2)c1)[C@H](Cc1ccccc1)NCc1nccs1` [Example 34.16, (S)-3-Phenyl-N-(3-(pyridin-4-yl)phenyl)-2-(thiazol-2-ylmethylamino)propanamide], for which the EC50 was 100 to 1000 nM. Next, `O=C(Nc1cnc(-c2ccncc2)s1)[C@H](Cc1ccccc1)NCc1cscn1` [Example 5.3, (S)-3-Phenyl-N-(2-(pyridin-4-yl)thiazol-5-yl)-2-(thiazol-4-ylmethylamino)-propanamide]: 50 to 100 nM; `CC(N[C@@H](Cc1ccccc1)C(=O)Nc1cccc(-c2ccncc2)c1)c1cnccn1` (stereo partly drawn) [Example 34.10, (2S)-3-Phenyl-2-(1-(pyrazin-2-yl)ethylamino)-N-(3-(pyridin-4-yl)phenyl)propanamide]: 100 to 1000 nM; `Nc1cccc(-c2cccc(NC(=O)[C@H](Cc3ccccc3)NCc3cscn3)c2)c1` [Example 40, (S)—N-(3′-aminobiphenyl-3-yl)-3-phenyl-2-(thiazol-4-ylmethylamino)propanamide]: 1000 to 10000 nM. `O=C(Nc1cccc(-c2ccncc2)c1)[C@H](Cc1ccccc1)NCc1cscn1` [Example 34.14, (S)-3-Phenyl-N-(3-(pyridin-4-yl)phenyl)-2-(thiazol-4-ylmethylamino)propanamide]: the EC50 is 50 to 100 nM.
